Read-outs that look alike come from different tables or passages of the source. Strand notation (5' to 3'): a small letter for the sugar, then the base; units joined by * are phosphorothioate-linked, units joined directly phosphodiester-linked; [ ] holds rarer units or linkages, { } end groups; capitals alone tell only the bases. [MMI] = methylene(methylimino) internucleoside backbone linkage; e = 2'-O-(2-methoxyethyl) (MOE); [5mC] = 5-methylcytosine; d = 2'-deoxy (DNA) Bounds are passed on as bounds.

What all share (format): cell-based, human
For data set [1], the system named is ICAM-1 mRNA. The data set can be described thus: Cell surface ICAM-1 expression in HUVECs after Lipofectin delivery of MMI oligomers. The following applies: six concentrations 6.2 to 200 nM, N.A. = IC50 not obtained in the given dose range, read-out: Antisense activity (IC50) Lipofectin.
Data set [2] deals with ICAM-1 mRNA. The experiment in a line: Cell surface ICAM-1 expression in U937 cells after electroporation of MMI oligomers. The following applies: six concentrations 4 to 40 μM, N.A. = IC50 not obtained in the given dose range, read-out: Antisense activity (IC50) Electroporate. As to the method: ISIS 14293-14296 are corresponding oligomers with alternating MMI/P═S backbones.
U937 cells were washed once in cold Opti-MEM (Gibco-BRL, Grand Island, N.Y.) and resuspended at 4×10^6 cells/ml. Oligomer was added to 0.1 ml of cells and incubated for 10 minutes on ice. Cells were transferred to a 1 mm gap electrode (BTX, San Diego, Calif.) and electroporated at 0.75 kV/cm. Cells were incubated at room temperature for 10 minutes and transferred to pre-warmed medium. Cells were allowed to rest for 1.5 hours before ICAM-1 expression was induced with 5 ng/ml TNF-αovernight. Cells were stained with an anti-ICAM-1-PE antibody (Pharmingen, San Diego CA) the next day.

Data set [3] relates to ICAM-1 mRNA. The data set can be described thus: Northern blot analysis of ICAM-1 transcript abundance in oligomer-treated HUVECs. The following applies: FIG. 2. From the text:
Total cellular RNA was isolated from oligomer-treated HUVECs and analyzed to determine if inhibition of ICAM-1 protein expression resulted from antisense-promoted degradation of the target transcript.
(§1) Total cellular RNA was isolated by cellular lysis using CATRIMOX-14 surfactant (Iowa Biotechnology Group, Oakdale Iowa). Isolated RNA was separated on a 1.2% agarose gel containing 1.1% formaldehyde, then transferred to a nylon membrane and UV crosslinked to the membrane using a Stratagene UV crosslinker 2400 (La Jolla Calif.). Blots were hybridized with cDNA probes in QUICKHYB solution (Stratagene). Blots were washed twice at room temperature in 2×SSC with 0.1% SDS for 10 minutes each and then once in […] SSC with 0.1% SDS at 65° C. for 30 minutes.

The subject of data set [4] is E-selectin mRNA. The data set can be described thus: ELISA of E-selectin expression in HUVECs. The following applies: HUVECs; for IC50: ELISA, read-out: IC50 for reduction of E-selectin expression.
Data set [5] deals with E-selectin mRNA. The experiment in a line: Northern blot analysis of E-selectin mRNA levels in oligomer-treated HUVECs.
Text: ISIS 11929 is an antisense oligonucleotide targeted to E-selectin, another cellular adhesion molecule, and was included in this experiment as a control.
as §1

As to “ISIS 14294: T*GA*GT*AG*CA*GA*GG*AG*CT*C (SEQ ID NO: 12), alternating P═S/MMI; ICAM-1 n.t. 1-18 (TGAGTAGCAGAGGAGCTC; linkages [MMI]s[MMI]s[MMI]s[MMI]s[MMI]s[MMI]s[MMI]s[MMI]s[MMI] (s phosphorothioate, o phosphodiester), sugars by position and methylation of C not given here; 3'-terminal nucleotide 2'-deoxy, non-terminal cytosines 5-methylated)”, the results for the IC50 in the data set on ICAM-1 mRNA [1] and with ICAM-1 mRNA [2] were 0.175 µM and 20 µM, respectively.

On to “ISIS 11929: SEQ ID NO: 3, P═O all 2′-MOE except 3′ nt is deoxy, all C's 5meC; E-selectin 5′ cap (antisense eGeAeAeGeTe[5mC]eAeGe[5mC]e[5mC]eAeAeGeAeAe[5mC]eAeGe[5mC]dT)”, for which, in the data set on ICAM-1 mRNA [3], the “relative abundance of the ICAM-1 transcript (Northern blot)” value is recorded as “did not cause an increase”. The half-maximal inhibitory concentration (IC50) in the data set on E-selectin mRNA [4] (FIG. 5 experiment) and in the data set with E-selectin mRNA [4] (equivalent (second) experiment) was under 0.003 µM throughout. Besides, in the data set with E-selectin mRNA [4] (FIG. 3 experiment), the “IC50 for inhibition of E-selectin expression” value is given as “well below this”. In addition, the “inhibition of E-selectin expression” value in the data set on E-selectin mRNA [4] (oligomer concentration of 50 nM) is given as about 100%. The “E-selectin mRNA levels” value in the data set with E-selectin mRNA [5] is recorded as “did cause an increase”.

Turning to “ISIS 14293: T*CT*GA*GT*AG*CA*GA*GG*AG*CT*C (SEQ ID NO: 1), alternating P═S/MMI; ICAM-1 n.t. 1-20 (TCTGAGTAGCAGAGGAGCTC; linkages [MMI]s[MMI]s[MMI]s[MMI]s[MMI]s[MMI]s[MMI]s[MMI]s[MMI]s[MMI] (s phosphorothioate, o phosphodiester), sugars by position and methylation of C not given here; 3'-terminal nucleotide 2'-deoxy, non-terminal cytosines 5-methylated)”, the IC50 was found to be 0.115 µM in the data set on ICAM-1 mRNA [1] and 32 µM in the data set on ICAM-1 mRNA [2].

The record behind these values is US20020052331A1, “Compositions and methods for antisense inhibition of protein translation” (priority 1990, published 2002).
